Measurements taken from patent US20090118350A1, “Biomarkers for Identifying Efficacy of Tegaserod in Patients with Chronic Constipation” (priority 2005, published 2009).

Tested on: patients with chronic constipation
Assay: Clinical trial, secondary efficacy RESP12: increase of 1 or more CSBM/week over baseline after 12 weeks of treatment, by subgroup and genotype
Assay type: in vivo, human
Details: for Odds Ratio (T6 v P) / % Responders T6: 6-mg bid
Protocol: Introduction. A clinical trial was performed to evaluate the efficacy of tegaserod (Zelmac®/Zelnorm™) at 6 mg bid (12 mg/day) or 2 mg bid (4 mg/day) vs. placebo by measuring the number of complete spontaneous bowel movements (CSBM) during the first 4 weeks of treatment. Secondary objectives included evaluating the number of CSBM during the entire 12-week treatment period, bowel habits, laxative use, and safety and tolerability issues. The clinical trial design consisted of a 2-week baseline period without medication, a 12-week, randomized, double-blind, placebo-controlled treatment period, and a 4-week withdrawal period without study medication. As part of the clinical trial, DNA was collected from patients at screening for pharmacogenetic analysis to evaluate genetic polymorphisms relating to drug targets and disease aetiology.
Clinical assessments. […] The primary efficacy endpoint evaluated was the increase of 1 or more CSBM/week over baseline after 4 weeks of treatment. A secondary endpoint evaluated in this genotyping study was RESP12, the increase of 1 of more CSBM/week over baseline after 12 weeks of treatment. Patients were classified as responders if they met these criteria and had completed at least 7 days of treatment. Additional secondary efficacy assessments were evaluated based on the weekly diary assessments, such as bothersome constipation, bothersome abdominal pain, and satisfaction with bowel habits at the end of the 12-week treatment period (using the baseline value as a co-variant for analysis).
Statistical analysis. Statistical analysis was performed using SAS version 8.2 (The SAS Institute, Cary, N.C., USA). Analysis methods included Fisher's Exact tests, analysis of Covariance (ANCOVA), logistic regression, and Mantel-Haenzel tests to determine odds ratios and 95% confidence intervals, with significance established at p<0.05. Calculation of linkage disequilibrium was performed using the GOLD (graphical overview of linkage disequilibrium) method described by Abecasis & Cookson, Bioinformatics 16: 182-3 (2000).
Secondary efficacy endpoint: response after 12 weeks of treatment. The same comparison as above was performed using the secondary efficacy endpoint of a mean increase of 1 or more CSBM/week over baseline after 12 weeks of treatment. The results for the 12 individual “high responder” SNPs are presented in TABLE 9 and the results using the comparison of individuals with or without at least one of the twelve SNPs is presented in TABLE 10.

[1] = M + F (<65), 0-12 of the 12 SNPs
[2] = M + F (<65), 1-12 of the 12 SNPs
[3] = M + F (>=65), 0-12 of the 12 SNPs
[4] = M + F (>=65), 1-12 of the 12 SNPs
[5] = M + F (All ages), 0-12 of the 12 SNPs
[6] = M + F (All ages), 0 of the 12 SNPs
[7] = M + F (All ages), 1-12 of the 12 SNPs
[8] = Male (All ages), 0-12 of the 12 SNPs
[9] = Male (All ages), 0 of the 12 SNPs
[10] = Male (All ages), 1-12 of the 12 SNPs

SMILES: [H]/N=C(/NCCCCC)N/N=C/c1c[nH]c2ccc(OC)cc12 [tegaserod, Tegaserod]
- Odds Ratio (T6 v P) (HTR4 (3753) genotype CC): 3.1
- % Responders T6 (HTR4 (3753) genotype CT): 50%
- Odds Ratio (T6 v P) (HTR4 (3753) genotype CT): 2.7
- % Responders T6 (HTR4 (3753) genotype TT): 70%
- Odds Ratio (T6 v P) (HTR4 (3753) genotype TT): 3.5
- % Responders T6 (HTR4 (3754) genotype AA): 50%
- Odds Ratio (T6 v P) (HTR4 (3754) genotype AA): 4.1
- % Responders T6 (HTR4 (3754) genotype AT): 45%
- Odds Ratio (T6 v P) (HTR4 (3754) genotype AT): 2.0
- % Responders T6 (HTR4 (3754) genotype TT): 63%
- Odds Ratio (T6 v P) (HTR4 (3754) genotype TT): 2.8
- % Responders T6 (HTR4 (3756) genotype AA): 39%
- Odds Ratio (T6 v P) (HTR4 (3756) genotype AA): 2.6
- % Responders T6 (HTR4 (3756) genotype AC): 54%
- Odds Ratio (T6 v P) (HTR4 (3756) genotype AC): 3.0
- % Responders T6 (HTR4 (3756) genotype CC): 71%
- Odds Ratio (T6 v P) (HTR4 (3756) genotype CC): 4.6
- % Responders T6 [1]: 49%
- Odds Ratio (T6 v P) [1]: 3.0
- % Responders T6 (M + F (<65), 0 of the 12 SNPs): 37%
- Odds Ratio (T6 v P) (M + F (<65), 0 of the 12 SNPs): 1.6
- % Responders T6 [2]: 62%
- Odds Ratio (T6 v P) [2]: 5.6
- % Responders T6 [3]: 53%
- Odds Ratio (T6 v P) [3]: 2.3
- % Responders T6 (M + F (>=65), 0 of the 12 SNPs): 29%
- Odds Ratio (T6 v P) (M + F (>=65), 0 of the 12 SNPs): 0.4
- % Responders T6 [4]: 70%
- Odds Ratio (T6 v P) [4]: 10.1
- % Responders T6 [5]: 49%
- Odds Ratio (T6 v P) [5]: 2.8
- % Responders T6 [6]: 36%
- Odds Ratio (T6 v P) [6]: 1.3
- % Responders T6 [7]: 63%
- Odds Ratio (T6 v P) [7]: 6.0
- % Responders T6 (MLN (1783) genotype CC): 49%
- Odds Ratio (T6 v P) (MLN (1783) genotype CC): 2.6
- % Responders T6 (MLN (1783) genotype CT): 44%
- Odds Ratio (T6 v P) (MLN (1783) genotype CT): 2.2
- % Responders T6 (MLN (1783) genotype TT): 67%
- Odds Ratio (T6 v P) (MLN (1783) genotype TT): 12.0
- % Responders T6 [8]: 57%
- Odds Ratio (T6 v P) [8]: 3.0
- % Responders T6 [9]: 40%
- Odds Ratio (T6 v P) [9]: 0.8
- % Responders T6 [10]: 73%
- Odds Ratio (T6 v P) [10]: 13.3
- % Responders T6 (SCNN1A (3806) genotype GG): 62%
- Odds Ratio (T6 v P) (SCNN1A (3806) genotype GG): 5.9
- % Responders T6 (SCNN1A (3806) genotype GT): 49%
- Odds Ratio (T6 v P) (SCNN1A (3806) genotype GT): 2.6
- % Responders T6 (SCNN1A (3806) genotype TT): 44%
- Odds Ratio (T6 v P) (SCNN1A (3806) genotype TT): 2.2
- % Responders T6 (SLC12A2 (1842) genotype AA): 54%
- Odds Ratio (T6 v P) (SLC12A2 (1842) genotype AA): 6.2
- % Responders T6 (SLC12A2 (1842) genotype AG): 47%
- Odds Ratio (T6 v P) (SLC12A2 (1842) genotype AG): 2.7
- % Responders T6 (SLC12A2 (1842) genotype GG): 50%
- Odds Ratio (T6 v P) (SLC12A2 (1842) genotype GG): 2.5
- % Responders T6 (SLC12A2 (3801) genotype CC): 58%
- Odds Ratio (T6 v P) (SLC12A2 (3801) genotype CC): 7.9
- % Responders T6 (SLC12A2 (3801) genotype CT): 49%
- Odds Ratio (T6 v P) (SLC12A2 (3801) genotype CT): 2.4
- % Responders T6 (SLC12A2 (3801) genotype TT): 50%
- Odds Ratio (T6 v P) (SLC12A2 (3801) genotype TT): 2.9
- % Responders T6 (TPH1 (1756) genotype GG): 51%
- Odds Ratio (T6 v P) (TPH1 (1756) genotype GG): 6.1
- % Responders T6 (TPH1 (1756) genotype GT): 51%
- Odds Ratio (T6 v P) (TPH1 (1756) genotype GT): 2.4
- % Responders T6 (TPH1 (1756) genotype TT): 45%
- Odds Ratio (T6 v P) (TPH1 (1756) genotype TT): 2.2
- % Responders T6 (TPH1 (3784) genotype CC): 41%
- Odds Ratio (T6 v P) (TPH1 (3784) genotype CC): 1.9
- % Responders T6 (TPH1 (3784) genotype CT): 52%
- Odds Ratio (T6 v P) (TPH1 (3784) genotype CT): 2.5
- % Responders T6 (TPH1 (3784) genotype TT): 51%
- Odds Ratio (T6 v P) (TPH1 (3784) genotype TT): 5.8
- % Responders T6 (all genotypes): 49%
- Odds Ratio (T6 v P) (all genotypes): 2.8
- % Responders T6 (all genotypes (Table 11)): 49%
- Odds Ratio (T6 v P) (all genotypes (Table 11)): 2.8
- response rate (high responder genotypes of HTR4, tegaserod-treated patients): > 60%
